Here are results for 37 molecules from patent US9884868B2, “TGF-beta inhibitors” (Rigel Pharmaceuticals, Inc., priority 2015, dated 2018).

SMILES strings stand for the structures. Where two headings read alike, the source gives them in different places.

The assay has as its target HIS-TGF-βR1 T204D (Homo sapiens (Human), UniProt P36897, T204D). The experiment in a line: HTRF probe displacement assay with HIS-TGF-βR1 T204D. A general note: Time-resolved FRET reads energy transfer from a long-lived donor to a nearby acceptor.
The mark [1] stands for this setting: read-out: TGFbr1 IC50, HTRF probe displacement, 1 nM HIS-TGF-βR1 T204D, 1 hour at room temperature.

HIS-TGF-βR1 T204D, sequence (P36897 34-503 T204D): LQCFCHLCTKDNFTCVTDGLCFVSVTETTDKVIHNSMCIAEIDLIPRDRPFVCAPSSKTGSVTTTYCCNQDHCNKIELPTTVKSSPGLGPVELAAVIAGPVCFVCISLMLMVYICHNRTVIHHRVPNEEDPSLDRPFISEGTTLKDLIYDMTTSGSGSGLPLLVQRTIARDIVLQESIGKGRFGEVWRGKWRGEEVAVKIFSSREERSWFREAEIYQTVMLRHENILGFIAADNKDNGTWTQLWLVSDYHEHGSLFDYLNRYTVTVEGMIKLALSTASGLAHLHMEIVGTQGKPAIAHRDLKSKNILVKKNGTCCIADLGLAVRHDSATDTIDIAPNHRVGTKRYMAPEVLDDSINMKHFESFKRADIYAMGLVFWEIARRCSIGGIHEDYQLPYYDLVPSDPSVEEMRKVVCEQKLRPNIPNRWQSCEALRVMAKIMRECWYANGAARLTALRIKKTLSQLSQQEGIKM

By IC50 is commonly meant the concentration that gives 50% inhibition. In the case of `N#Cc1cnc2ccc(-c3c(-c4ccccc4O)ncn3CC(F)F)nn12` [248′, 6-(1-(2,2-difluoroethyl)-4-(2-hydroxyphenyl)-1H-imidazol-5-yl)imidazo[1,2-b]pyridazine-3-carbonitrile], under setting [1], the IC50 worked out at 0.7 nM.

For the molecule `N#Cc1cc(-c2ncn(CC(F)F)c2-c2ccc3ncc(C#N)n3n2)ccc1F` [266′, 6-(4-(3-cyano-4-fluorophenyl)-1-(2,2-difluoroethyl)-1H-imidazol-5-yl)imidazo[1,2-b]pyridazine-3-carbonitrile], under setting [1], the IC50 is 7.9 nM. In the case of `Cc1ccc(-c2ncn(CC(F)F)c2-c2ccc3ncc(C#N)n3n2)cc1` [241′, 6-(1-(2,2-difluoroethyl)-4-(p-tolyl)-1H-imidazol-5-yl)imidazo[1,2-b]pyridazine-3-carbonitrile], the IC50 under setting [1] was found to be 173 nM. The same measure, in the same setting: to `CC(C)OCCn1cnc(-c2ccc(F)cc2)c1-c1ccc2ncc(C(N)=O)n2n1` [124′, 6-(4-(4-fluorophenyl)-1-(2-isopropoxyethyl)-1H-imidazol-5-yl)imidazo[1,2-b]pyridazine-3-carboxamide] belongs 2.5 nM; to `CC(C1CC1)n1cnc(-c2ccc(F)cc2)c1-c1ccc2ncc(C#N)n2c1` (stereo not shown) [88′, 6-(1-(1-cyclopropylethyl)-4-(4-fluorophenyl)-1H-imidazol-5-yl)imidazo[1,2-a]pyridine-3-carbonitrile], 19.3 nM; to `CC(C)C(C)n1cnc(-c2ccc(F)cc2)c1-c1ccc2ncc(C#N)n2c1` (stereo not shown) [76′, 6-(4-(4-fluorophenyl)-1-(3-methylbutan-2-yl)-1H-imidazol-5-yl)imidazo[1,2-a]pyridine-3-carbonitrile], 999 nM.

`N#Cc1cnc2ccc(-c3c(-c4ccc(F)cc4F)ncn3CC(F)F)cn12` [227′, 6-(1-(2,2-difluoroethyl)-4-(2,4-difluorophenyl)-1H-imidazol-5-yl)imidazo[1,2-a]pyridine-3-carbonitrile] registered an IC50 of 8.1 nM.

Take `N#Cc1cnc2ccc(-c3c(-c4ccc(O)cc4)ncn3CC(F)F)nn12` [250′, 6-(1-(2,2-difluoroethyl)-4-(4-hydroxyphenyl)-1H-imidazol-5-yl)imidazo[1,2-b]pyridazine-3-carbonitrile]: the IC50 under setting [1] was determined as 136 nM. Still for that read-out and setting: to `N#Cc1cnc2ccc(-c3c(-c4ccc(F)cc4)ncn3C3CC3)cn12` [77′, 6-(1-cyclopropyl-4-(4-fluorophenyl)-1H-imidazol-5-yl)imidazo[1,2-a]pyridine-3-carbonitrile] belongs 19.8 nM; to `N#Cc1cnc2ccc(-c3c(-c4ccc(F)cc4)ncn3C[C@@H](O)CO)cn12` [71′, (R)-6-(1-(2,3-dihydroxypropyl)-4-(4-fluorophenyl)-1H-imidazol-5-yl)imidazo[1,2-a]pyridine-3-carbonitrile], 170 nM; to `CC(C)n1cnc(-c2ccc(F)c(Cl)c2)c1-c1ccc2ncc(C(N)=O)n2n1` [116′, 6-(4-(3-chloro-4-fluorophenyl)-1-isopropyl-1H-imidazol-5-yl)imidazo[1,2-b]pyridazine-3-carboxamide], 0.9 nM. Take `NC(=O)c1cnc2ccc(-c3c(-c4ccc(F)cc4)ncn3[C@H]3C[C@@H](O)C3)nn12` [Example 123′]: under setting [1], the IC50 stood at 4.2 nM. As to `CC(C)Cn1cnc(-c2ccc(F)cc2)c1-c1ccc2ncc(C#N)n2c1` [82′, 6-(4-(4-fluorophenyl)-1-isobutyl-1H-imidazol-5-yl)imidazo[1,2-a]pyridine-3-carbonitrile], the IC50 under setting [1] came out at 71.6 nM. As for `Cn1cnc(-c2ccc(F)c(Cl)c2)c1-c1ccc2ncc(C#N)n2c1` [98′, 6-(4-(3-chloro-4-fluorophenyl)-1-methyl-1H-imidazol-5-yl)imidazo[1,2-a]pyridine-3-carbonitrile], the IC50 under setting [1] is 17.3 nM. In the case of `Fc1ccc(-c2ncn(CCC(F)(F)F)c2-c2ccc3nccn3c2)cc1Cl` [182′, 6-(4-(3-chloro-4-fluorophenyl)-1-(3,3,3-trifluoropropyl)-1H-imidazol-5-yl)imidazo[1,2-a]pyridine], the IC50 under setting [1] turned out to be 50.8 nM. For `CCn1cnc(-c2ccc(F)cc2)c1-c1ccc2ncc(C#N)n2c1` [73′, 6-(1-ethyl-4-(4-fluorophenyl)-1H-imidazol-5-yl)imidazo[1,2-a]pyridine-3-carbonitrile], the IC50 under setting [1] is 36.2 nM.

With `NC(=O)c1cnc2ccc(-c3c(-c4ccc(F)c(Cl)c4)ncn3C[C@@H]3CCCO3)nn12` [145′, (S)-6-(4-(3-chloro-4-fluorophenyl)-1-((tetrahydrofuran-2-yl)methyl)-1H-imidazol-5-yl)imidazo[1,2-b]pyridazine-3-carboxamide], under setting [1], the IC50 was found to be 2.2 nM. On to `NC(=O)c1cnc2ccc(-c3c(-c4ccc(F)cc4)ncn3CCCO)cn12` [165′, 6-(4-(4-fluorophenyl)-1-(3-hydroxypropyl)-1H-imidazol-5-yl)imidazo[1,2-a]pyridine-3-carboxamide], for which, under setting [1], the IC50 was 4.9 nM. For the molecule `CC(C)n1cnc(-c2ccc(F)cc2)c1-c1ccc2ncc(C#N)n2c1` [79′, 6-(4-(4-fluorophenyl)-1-isopropyl-1H-imidazol-5-yl)imidazo[1,2-a]pyridine-3-carbonitrile], the IC50 under setting [1] came to 55.3 nM. Take `N#Cc1cnc2ccc(-c3c(-c4ccc(F)cc4)ncn3C3CNC3)nn12` [190C′, 6-(1-(azetidin-3-yl)-4-(4-fluorophenyl)-1H-imidazol-5-yl)imidazo[1,2-b]pyridazin-3-carbonitrile]: the IC50 under setting [1] came out at 86.2 nM. On to `NC(=O)c1cnc2ccc(-c3c(-c4ccc(F)cc4)nc4n3CCNC4)cn12` [Example 290′, 6-(2-(4-fluorophenyl)-5,6,7,8-tetrahydroimidazo[1,2-60]pyrazin-3-yl)imidazo[1,2-a]pyridine-3-carboxamide], for which, under setting [1], the IC50 is 21.6 nM. On to `CC(CCO)n1cnc(-c2ccc(F)cc2)c1-c1ccc2ncc(C#N)n2c1` (stereo not shown) [80′, 6-(4-(4-fluorophenyl)-1-(4-hydroxybutan-2-yl)-1H-imidazol-5-yl)imidazo[1,2-a]pyridine-3-carbonitrile], for which, under setting [1], the IC50 amounted to 31 nM. As for `N#Cc1cnc2ccc(-c3c(-c4cccc(N)c4)ncn3CC(F)F)nn12` [240′, 6-(4-(3-aminophenyl)-1-(2,2-difluoroethyl)-1H-imidazol-5-yl)imidazo[1,2-b]pyridazine-3-carbonitrile], under setting [1], the IC50 amounted to 14.3 nM. On the same count and under the same terms, the value for `N#Cc1cnc2ccc(-c3c(-c4ccc(F)cc4)nc4n3CCC4)cn12` [283B′, 6-(2-(4-fluorophenyl)-6,7-dihydro-5H-pyrrolo[1,2-a]imidazol-3-yl)imidazo[1,2-a]pyridine-3-carbonitrile] was 13.8 nM; that for `Cc1nc(-c2ccc(F)cc2)c(-c2ccc3ncc(C(N)=O)n3c2)n1CC(F)F` [Example 272′, 6-(1-(2,2-difluoroethyl)-4-(4-fluorophenyl)-2-methyl-1H-imidazol-5-yl)imidazo[1,2-a]pyridine-3-carboxamide] was 10.4 nM; that for `Nc1cnc2ccc(-c3c(-c4ccc(F)cc4)ncn3CC(F)F)cn12` [284D′, 6-(1-(2,2-difluoroethyl)-4-(4-fluorophenyl)-1H-imidazol-5-yl)imidazo[1,2-a]pyridin-3-amine] was 1.2 nM. On the same count and under the same terms, the value for `NNC(=O)c1cnc2ccc(-c3c(-c4ccc(F)cc4)ncn3CC(F)F)nn12` [Example 205′, 6-(1-(2,2-difluoroethyl)-4-(4-fluorophenyl)-1H-imidazol-5-yl)imidazo[1,2-b]pyridazine-3-carbohydrazide] was 1.8 nM; that for `N#Cc1cnc2ccc(-c3c(-c4ccc(F)c(Cl)c4)ncn3CCC3CC3)nn12` [61′, 6-(4-(3-chloro-4-fluorophenyl)-1-(2-cyclopropylethyl)-1H-imidazol-5-yl)imidazo[1,2-b]pyridazine-3-carbonitrile] was 0.8 nM. On to `CC(C)(O)Cn1cnc(-c2ccc(F)cc2)c1-c1ccc2ncc(C#N)n2c1` [90′, 6-(4-(4-fluorophenyl)-1-(2-hydroxy-2-methylpropyl)-1H-imidazol-5-yl)imidazo[1,2-a]pyridine-3-carbonitrile], for which the IC50 under setting [1] was determined as 107 nM.

With `NC(=O)c1cnc2ccc(-c3c(-c4ccc(F)cc4)ncn3CC3CCC3)cn12` [157′, 6-(1-(cyclobutylmethyl)-4-(4-fluorophenyl)-1H-imidazol-5-yl)imidazo[1,2-a]pyridine-3-carboxamide], under setting [1], the IC50 turned out to be 0.8 nM. As to `NC(=O)c1cnc2ccc(-c3c(-c4ccc(F)cc4)ncn3C3COC3)cn12` [173′, 6-(4-(4-fluorophenyl)-1-(oxetan-3-yl)-1H-imidazol-5-yl)imidazo[1,2-a]pyridine-3-carboxamide], the IC50 under setting [1] came out at 6.6 nM. For `COc1cc(-c2ncn(CC(F)F)c2-c2ccc3ncc(C#N)n3n2)ccc1F` [262′, 6-(1-(2,2-difluoroethyl)-4-(4-fluoro-3-methoxyphenyl)-1H-imidazol-5-yl)imidazo[1,2-b]pyridazine-3-carbonitrile], the IC50 under setting [1] turned out to be 5.2 nM. Same read-out and setting: the value for `CC(=O)Nc1cnc2ccc(-c3c(-c4ccc(F)cc4)ncn3CC(F)F)nn12` [Example 212′, N-(6-(1-(2,2-difluoroethyl)-4-(4-fluorophenyl)-1H-imidazol-5-yl)imidazo[1,2-b]pyridazin-3-yl)acetamide] was 9.3 nM.

On to `CCn1cnc(-c2ccc(F)cc2)c1-c1ccc2ncc(C#N)n2n1` [10′, 6-(1-ethyl-4-(4-fluorophenyl)-1H-imidazol-5-yl)imidazo[1,2-b]pyridazine-3-carbonitrile], for which the IC50 under setting [1] is 2.5 nM. The same measure, in the same setting: the value for `N#Cc1cnc2ccc(-c3c(-c4ccc(F)cc4)ncn3CCF)nn12` [9′, 6-(1-(2-fluoroethyl)-4-(4-fluorophenyl)-1H-imidazol-5-yl)imidazo[1,2-b]pyridazine-3-carbonitrile] was 1.9 nM. With `C=Cc1cnc2ccc(-c3c(-c4ccc(F)cc4)ncn3CC(F)F)nn12` [213E′, 6-(1-(2,2-difluoroethyl)-4-(4-fluorophenyl)-1H-imidazol-5-yl)-3-vinylimidazo[1,2-b]pyridazine], the IC50 under setting [1] worked out at 1.6 nM. With `CN1CCn2c(nc(-c3ccc(F)cc3)c2-c2ccc3ncc(C(N)=O)n3c2)C1` [Example 293′, 6-(2-(4-fluorophenyl)-7-methyl-5,6,7,8-tetrahydroimidazo[1,2-a]pyrazin-3-yl)imidazo[1,2-a]pyridine-3-carboxamide], under setting [1], the IC50 was 43.3 nM.
